From EP2818472A1, “Imidazo[4,5-c]pyridine and pyrrolo[3,2-c]pyridine compounds as G-protein-coupled receptor kinase 5 (GRK5) modulators” (Max-Planck-Gesellschaft zur Förderung der Wissenschaften …, priority 2013, dated 2014)

Test system: beta-TC6 cells
Assay: Insulin HTRF assay (relative activity Ar) in beta-TC6 cells
Type: cell-based, mouse
Details: Mus musculus, Beta-TC6, 4 h, insulin HTRF, supernatant of beta-TC6 cells, incubation with test compound at 37°C for 2, 3, 4h; read-out: Ar (relative activity)
Outline: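 beta-TC6 cells (15k/well, seeded 24 or 48 h) washed, then exposed to compound in induction buffer (0.5% DMSO final) for 2, 3 or 4 h at 37°C.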

Row | Structure (SMILES) | Emax
1 | CS(=O)(=O)c1cccc(Nc2nccc3[nH]c(-c4cccc(F)c4)cc23)c1 [Compound 202, 2-(3-fluorophenyl)-N-(3-methylsulfonylphenyl)-1H-pyrrolo[3,2-c]pyridin-4-amine] | 30 to 50%
2 | Fc1cccc(-c2cc3c(Nc4ccc5c(c4)OCO5)nccc3[nH]2)c1 [Compound 203, N-(1,3-benzodioxol-5-yl)-2-(3-fluorophenyl)-1H-pyrrolo[3,2-c]pyridin-4-amine] | 30 to 50%
3 | COc1ccc(Nc2nccc3[nH]c(-c4cccc(F)c4)cc23)cc1O [Compound 204, 5-[[2-(3-fluorophenyl)-1H-pyrrolo[3,2-c]pyridin-4-yl]amino]-2-methoxy-phenol] | 50 to 100%
4 | CS(=O)(=O)Nc1cccc(Nc2nccc3[nH]c(-c4cccc(F)c4)cc23)c1 [Compound 205, N-[3-[[2-(3-fluorophenyl)-1H-pyrrolo[3,2-c]pyridin-4-yl]amino]phenyl]methanesulfonamide] | 50 to 100%
5 | CC(=O)Nc1cccc(Nc2nccc3[nH]c(-c4cccc(F)c4)cc23)c1 [Compound 206, N-[3-[[2-(3-fluorophenyl)-1H-pyrrolo[3,2-c]pyridin-4-yl]amino]phenyl]acetamide] | 50 to 100%
6 | CS(=O)(=O)c1ccc(Nc2nccc3[nH]c(-c4cccc(F)c4)cc23)cc1 [Compound 207, 2-(3-fluorophenyl)-N-(4-methylsulfonylphenyl)-1H-pyrrolo[3,2-c]pyridin-4-amine] | 50 to 100%
7 | COc1ccc(Nc2nccc3c2cc(-c2cccc(F)c2)n3C)cc1OC [Compound 208, N-(3,4-dimethoxyphenyl)-2-(3-fluorophenyl)-1-methyl-pyrrolo[3,2-c]pyridin-4-amine] | 30 to 50%
8 | CN1CCN(c2ccc(Nc3nccc4c3cc(-c3cccc(F)c3)n4C)cc2)CC1 [Compound 209, 2-(3-fluorophenyl)-1-methyl-N-[4-(4-methylpiperazin-1-yl)phenyl]pyrrolo[3,2-c]pyridin-4-amine] | 50 to 100%
9 | CC(=O)Nc1cccc(Nc2nccc3c2cc(-c2cccc(F)c2)n3C)c1 [Compound 210, N-[3-[[2-(3-fluorophenyl)-1-methyl-pyrrolo[3,2-c]pyridin-4-yl]amino]phenyl]acetamide] | 30 to 50%
10 | CC(=O)Nc1ccc(Nc2nccc3c2cc(-c2ccc(C(=O)N(C)C)cc2)n3C)cc1 [Compound 211, 4-[4-(4-acetamidoanilino)-1-methyl-pyrrolo[3,2-c]pyridin-2-yl]-N,N-dimethyl-benzamide] | 30 to 50%
11 | COc1cccc(Nc2nccc3c2cc(-c2ccc(C(=O)N(C)C)cc2)n3C)c1 [Compound 212, 4-[4-(3-methoxyanilino)-1-methyl-pyrrolo[3,2-c]pyridin-2-yl]-N,N-dimethyl-benzamide] | 30 to 50%
12 | CN(C)C(=O)c1ccc(-c2cc3c(Nc4ccc(C(N)=O)cc4)nccc3n2C)cc1 [Compound 213, 4-[4-(4-carbamoylanilino)-1-methyl-pyrrolo[3,2-c]pyridin-2-yl]-N,N-dimethyl-benzamide] | 50 to 100%
13 | CN(C)C(=O)c1ccc(-c2cc3c(Nc4ccc5c(c4)OCCO5)nccc3n2C)cc1 [Compound 214, 4-[4-(2,3-dihydro-1,4-benzodioxin-6-ylamino)-1-methyl-pyrrolo[3,2-c]pyridin-2-yl]-N,N-dimethyl-benzamide] | 50 to 100%
14 | COc1ccc(Nc2nccc3c2cc(-c2ccc(C(=O)N(C)C)cc2)n3C)cc1OC [Compound 215, 4-[4-(3,4-dimethoxyanilino)-1-methyl-pyrrolo[3,2-c]pyridin-2-yl]-N,N-dimethyl-benzamide] | 50 to 100%
15 | COc1ccc(Nc2nccc3c2cc(-c2ccc(C(=O)N(C)C)cc2)n3C)cn1 [Compound 216, 4-[4-[(6-methoxy-3-pyridyl)amino]-1-methyl-pyrrolo[3,2-c]pyridin-2-yl]-N,N-dimethyl-benzamide] | 50 to 100%
16 | CN(C)C(=O)c1ccc(-c2cc3c(Nc4ccc(Oc5ccccc5)cc4)nccc3n2C)cc1 [Compound 217, N,N-dimethyl-4-[1-methyl-4-(4-phenoxyanilino)pyrrolo[3,2-c]pyridin-2-yl]benzamide] | 0 to 30%
17 | CN(C)C(=O)c1ccc(-c2cc3c(Nc4cccc(N(C)C)c4)nccc3n2C)cc1 [Compound 218, 4-[4-[3-(dimethylamino)anilino]-1-methyl-pyrrolo[3,2-c]pyridin-2-yl]-N,N-dimethyl-benzamide] | 50 to 100%
18 | CN(C)C(=O)c1ccc(-c2cc3c(Nc4ccccn4)nccc3n2C)cc1 [Compound 219, N,N-di methyl-4-[1-methyl-4-(2-pyridylamino)pyrrolo[3,2-c]pyridin-2-yl]benzamide] | 30 to 50%
19 | COc1cc(Nc2nccc3c2cc(-c2ccc(C(=O)N(C)C)cc2)n3C)cc(C(F)(F)F)c1 [Compound 220, N,N-dimethyl-4-[1-methyl-4-(3-methoxy-5-(trifuloromethyl)phenylamino)pyrrolo[3,2-c]pyridin-2-yl]benzamide] | 0 to 30%
20 | CN(C)C(=O)c1ccc(-c2cc3c(Nc4cccc(O)c4)nccc3n2C)cc1 [Compound 221, 4-[4-(3-hydroxyanilino)-1-methyl-pyrrolo[3,2-c]pyridin-2-yl]-N,N-dimethyl-benzamide] | 30 to 50%
21 | CN(C)C(=O)c1ccc(-c2cc3c(Nc4cccc(OC(F)(F)F)c4)nccc3n2C)cc1 [Compound 222, N,N-dimethyl-4-[1-methyl-4-[3-(trifluoromethoxy)anilino]pyrrolo[3,2-c]pyridin-2-yl]benzamide] | 0 to 30%
22 | CN(C)C(=O)c1ccc(-c2cc3c(Nc4cccc(Oc5ccccc5)c4)nccc3n2C)cc1 [Compound 223, N,N-dimethyl-4-[1-methyl-4-(3-phenoxyanilino)pyrrolo[3,2-c]pyridin-2-yl]benzamide] | 0 to 30%
23 | CC(C)c1cccc(Nc2nccc3c2cc(-c2ccc(C(=O)N(C)C)cc2)n3C)c1 [Compound 224, 4-[4-(3-isopropylanilino)-1-methyl-pyrrolo[3,2-c]pyridin-2-yl]-N,N-dimethyl-benzamide] | 0 to 30%
24 | CN(C)C(=O)c1ccc(-c2cc3c(Nc4cccc(NS(C)(=O)=O)c4)nccc3n2C)cc1 [Compound 225, 4-[4-[3-(methanesulfonamido)anilino]-1-methyl-pyrrolo[3,2-c]pyridin-2-yl]-N,N-dimethyl-benzamide] | 30 to 50%
25 | CN(C)c1ccc(-c2cc3c(Nc4ccc(O)cc4)nccc3n2C)cc1 [Compound 226, 4-[[2-(4-dimethylaminophenyl)-1-methyl-pyrrolo[3,2-c]pyridin-4-yl]amino]phenol] | 50 to 100%
26 | CN(C)c1ccc(-c2cc3c(Nc4ccc(C(N)=O)cc4)nccc3n2C)cc1 [Compound 227, 4-[[2-(4-dimethylaminophenyl)-1-methyl-pyrrolo[3,2-c]pyridin-4-yl]amino]benzamide] | 30 to 50%
27 | COc1ccc(Nc2nccc3c2cc(-c2ccc(N(C)C)cc2)n3C)cc1O [Compound 228, 5-[[2-(4-dimethylaminophenyl)-1-methyl-pyrrolo[3,2-c]pyridin-4-yl]amino]-2-methoxy-phenol] | 50 to 100%
28 | CN(C)c1ccc(-c2cc3c(Nc4ccncn4)nccc3n2C)cc1 [Compound 229, 2-(4-dimethylaminophenyl)-1-methyl-N-pyrimidin-4-yl-pyrrolo[3,2-c]pyridin-4-amine] | > 100%
29 | CN(C)c1ccc(-c2cc3c(Nc4ccc(S(C)(=O)=O)cc4)nccc3n2C)cc1 [Compound 230, 2-(4-dimethylaminophenyl)-1-methyl-N-(4-methylsulfonylphenyl)pyrrolo[3,2-c]pyridin-4-amine] | 30 to 50%
